Laboratory results as given in paper PMC7979765, “trans-Translation inhibitors bind to a novel site on the ribosome and clear Neisseria gonorrhoeae in vivo” (Nature Communications, 2021).
Values after ≈ are worked out from the molar mass of the structure shown. Values joined by “and” are separate entries in the source; they are usually repeats but may differ in a detail not shown here. Equal entries are not always repeated. Where two headings read alike, the source gives them in different places.

How the values were obtained:
Acinetobacter baumannii = assay: MIC, microbroth dilution; type: cell-based
Escherichia coli = assay: microbe, parasite or virus in culture; type: cell-based
Pseudomonas aeruginosa = assay: MIC, microbroth dilution; type: cell-based
trans-translation [1] = assay: microbe, parasite or virus in culture; type: cell-based, Escherichia coli
[2] = Aqueous solubility (nephelometric); type: physicochemical; conditions: aqueous solution (buffer not named); single replicates
trans-translation [3] = assay: In vitro trans-translation assay (S12 extract, nanoluc-ns, tmRNA-nl); type: biochemical, Escherichia coli; design: background subtraction: unit not given here; conditions: for normalized: activity, 0 = 100
From the text: The in vitro trans-translation assay is designed to produce the first 157 amino acids of nano-luciferase from a non-stop mRNA (nanoluc-ns) and add the C-terminal peptide […] via a mutant version of E. coli tmRNA (tmRNA-nl) to reconstitute an active nano-luciferase[45]. In this assay, the tagged nano-luciferase gene has >30,000-fold increase in activity over the peptide made in the absence of tmRNA-nl.
S12 lysates were made according to the procedure of Kim, et al.[46]. Briefly, a culture of E. coli BL21 (DE3) cells containing a pET28 plasmid carrying the E. coli T7 polymerase gene was grown at 37 °C to an OD600 = 0.8, induced with 1 mM IPTG and grown for an additional 3 h. Cells were harvested by centrifugation at 20,000 × g for 10 min at 4 °C and the pellet was resuspended in buffer A (20 mM Tris-acetate (pH 8.2), 14 mM Mg(OAc)2, 60 mM potassium glutamate, 1 mM DTT). Cells were lysed by sonication, the lysate was clarified by centrifugation at 12,000 × g for 10 min, and the supernatant was stored at −80 °C.
E. coli SmpB was purified as previously described. tmRNA-nl, a variant of E. coli tmRNA encoding the final 11 residues of nano-luciferase, was transcribed from the tmRNA-nl synthetic DNA sequence in vitro, purified, and folded as previously described for wild-type E. coli tmRNA[3]. The nanoluc-stop template DNA was prepared as previously described[3] by PCR amplification from pMC1 using T7 universal and nanoluc-stop primers. The nanoluc-ns was prepared in a similar manner using pMC1 with T7 universal and nanoluc-ns primers.
For in vitro trans-translation, tmRNA-nl and SmpB were premixed and stored on ice. S12 lysate (2 μl), freshly made polymix buffer (2 μl)[47] (final reaction concentrations 5 mM Hepes pH 7.6, 5 mM NH4Cl, 0.5 mM CaCl2, 1.5 mm MgCl2, 1 mM DTT, 8 mm putrescene, 2 mm ATP, 2 mM GTP, 1 mM CTP, 1 mM UTP, 0.3 mM each amino acid, 3 mg/ml E. coli tRNAs), nanoluc-ns template (0.5 μl; 60 ng) and 2 µl water were mixed and incubated at 37 °C for 5 min. This solution was dispensed to tubes containing 0.5 μl of different concentrations of an inhibitor prepared in 75% acetonitrile, 25% water, and incubated at 37 °C for 5 min. The tmRNA-nl/SmpB mixture (0.5 μl each, 2 μM final) was added to each tube and the samples were incubated at 37 °C for 1.5 h. NanoLuc substrate (Promega) was prepared according to the manufacturer’s instructions, one volume of this substrate solution was added to each sample tube, and the reactions transferred to a white 96-well plate. Luminescence readings were obtained using the SpectraMax i3 microplate reader. Data analysis was performed using GraphPad Prism 8.

Solubility (formulated) = type: physicochemical

O=C(Nc1nnc(-c2ccc(F)cc2)o1)N1CCc2ccccc2C1 [MBX-4132]
MIC (Acinetobacter baumannii; Acinetobacter baumannii ATCC 19606, replicates): ≥34 µg/mL
MIC (Acinetobacter baumannii; Acinetobacter baumannii, ATCC19606, Acinetobacter baumannii ATCC 19606, replicates, read-out: MIC): ≥ 34 µg/mL
MIC (Acinetobacter baumannii; Acinetobacter baumannii, ATCC19606, strain ATCC 19606, read-out: MIC): ≥ 34 µg/mL
MIC (Escherichia coli; E. coli KLE701 (ΔtolC::tet), source data, individual replicates): 4.229 µg/mL (≈ 12.5 µM)
MIC (Escherichia coli; Escherichia coli KLE700, replicates): ≥34 µg/mL
MIC (Escherichia coli; Escherichia coli KLE701 (ΔtolC), replicates): 2.11 µg/ml (4×) and 4.23 µg/ml (2×)
MIC (Escherichia coli; Escherichia coli, E. coli KLE701 (ΔtolC::tet), source data, individual replicates): 2.11 µg/mL (≈ 6.25 µM)
MIC (Escherichia coli; Escherichia coli, Escherichia coli KLE700, replicates, read-out: MIC): ≥ 34 µg/mL
MIC (Escherichia coli; Escherichia coli, strain KLE700, read-out: MIC): ≥ 34 µg/mL
MIC (Escherichia coli; Escherichia coli, strain KLE701, KLE700 ΔtolC::tet): 2.8 µg/mL (≈ 8.28 µM)
MIC (Pseudomonas aeruginosa; Pseudomonas aeruginosa ATCC 27853, replicates): ≥34 µg/mL
MIC (Pseudomonas aeruginosa; Pseudomonas aeruginosa, ATCC27853, Pseudomonas aeruginosa ATCC 27853, replicates, read-out: MIC): ≥ 34 µg/mL
MIC (Pseudomonas aeruginosa; Pseudomonas aeruginosa, ATCC27853, strain ATCC 27853, read-out: MIC): ≥ 34 µg/mL
IC50 (trans-translation [1]; Escherichia coli, E. coli non-stop luciferase reporter, Fig. 1B, read-out: in vivo luc-trpAt IC50): 600 nM
fold induction at 0.046875 µM (trans-translation [1]; Escherichia coli, read-out: fold induction, AVE 190919+190925, [4132] 0.046875 uM): 1.01
fold induction at 0.0625 µM (trans-translation [1]; Escherichia coli, read-out: fold induction, AVE 190919+190925, [4132] 0.0625 uM): 0.976
fold induction at 0.09375 µM (trans-translation [1]; Escherichia coli, read-out: fold induction, AVE 190919+190925, [4132] 0.09375 uM): 1.01
fold induction at 0.125 µM (trans-translation [1]; Escherichia coli, read-out: fold induction, AVE 190919+190925, [4132] 0.125 uM): 1.05
fold induction at 0.1875 µM (trans-translation [1]; Escherichia coli, read-out: fold induction, AVE 190919+190925, [4132] 0.1875 uM): 1.2
fold induction at 0.25 µM (trans-translation [1]; Escherichia coli, read-out: fold induction, AVE 190919+190925, [4132] 0.25 uM): 1.35
fold induction at 0.375 µM (trans-translation [1]; Escherichia coli, read-out: fold induction, AVE 190919+190925, [4132] 0.375 uM): 1.66
fold induction at 0.5 µM (trans-translation [1]; Escherichia coli, read-out: fold induction, AVE 190919+190925, [4132] 0.5 uM): 2
fold induction at 0.75 µM (trans-translation [1]; Escherichia coli, read-out: fold induction, AVE 190919+190925, [4132] 0.75 uM): 2.22
fold induction at 1 µM (trans-translation [1]; Escherichia coli, read-out: fold induction, AVE 190919+190925, [4132] 1 uM): 2.22
fold induction at 1.5 µM (trans-translation [1]; Escherichia coli, read-out: fold induction, AVE 190919+190925, [4132] 1.5 uM): 2.16
fold induction at 0.046875 µM (trans-translation [1]; Escherichia coli, read-out: fold induction, AVE per run, [4132] 0.046875 uM, run 190919 or 190925): 1.09
fold induction at 0.0625 µM (trans-translation [1]; Escherichia coli, read-out: fold induction, AVE per run, [4132] 0.0625 uM, run 190919 or 190925): 1.02
fold induction at 0.09375 µM (trans-translation [1]; Escherichia coli, read-out: fold induction, AVE per run, [4132] 0.09375 uM, run 190919 or 190925): 1.04
fold induction at 0.125 µM (trans-translation [1]; Escherichia coli, read-out: fold induction, AVE per run, [4132] 0.125 uM, run 190919 or 190925): 1.06
fold induction at 0.1875 µM (trans-translation [1]; Escherichia coli, read-out: fold induction, AVE per run, [4132] 0.1875 uM, run 190919 or 190925): 1.16
fold induction at 0.25 µM (trans-translation [1]; Escherichia coli, read-out: fold induction, AVE per run, [4132] 0.25 uM, run 190919 or 190925): 1.35
fold induction at 0.375 µM (trans-translation [1]; Escherichia coli, read-out: fold induction, AVE per run, [4132] 0.375 uM, run 190919 or 190925): 1.66
fold induction at 0.5 µM (trans-translation [1]; Escherichia coli, read-out: fold induction, AVE per run, [4132] 0.5 uM, run 190919 or 190925): 1.82
fold induction at 0.75 µM (trans-translation [1]; Escherichia coli, read-out: fold induction, AVE per run, [4132] 0.75 uM, run 190919 or 190925): 1.93
fold induction at 1 µM (trans-translation [1]; Escherichia coli, read-out: fold induction, AVE per run, [4132] 1 uM, run 190919 or 190925): 1.9
fold induction at 1.5 µM (trans-translation [1]; Escherichia coli, read-out: fold induction, AVE per run, [4132] 1.5 uM, run 190919 or 190925): 1.86
fold induction, AVE per run (trans-translation [1]; [4132] 0.046875 uM, run 190919 or 190925, 0.046875 µM): 0.9318
fold induction, AVE per run (trans-translation [1]; [4132] 0.0625 uM, run 190919 or 190925, 0.0625 µM): 0.9331
fold induction, AVE per run (trans-translation [1]; [4132] 0.09375 uM, run 190919 or 190925, 0.09375 µM): 0.9749
fold induction, AVE per run (trans-translation [1]; [4132] 0.125 uM, run 190919 or 190925, 0.125 µM): 1.0347
fold induction, AVE per run (trans-translation [1]; [4132] 0.1875 uM, run 190919 or 190925, 0.1875 µM): 1.234
fold induction, AVE per run (trans-translation [1]; [4132] 0.25 uM, run 190919 or 190925, 0.25 µM): 1.356
fold induction, AVE per run (trans-translation [1]; [4132] 0.375 uM, run 190919 or 190925, 0.375 µM): 1.653
fold induction, AVE per run (trans-translation [1]; [4132] 0.5 uM, run 190919 or 190925, 0.5 µM): 2.18
fold induction, AVE per run (trans-translation [1]; [4132] 0.75 uM, run 190919 or 190925, 0.75 µM): 2.51
fold induction, AVE per run (trans-translation [1]; [4132] 1 uM, run 190919 or 190925, 1 µM): 2.546
fold induction, AVE per run (trans-translation [1]; [4132] 1.5 uM, run 190919 or 190925, 1.5 µM): 2.459
Solubility [2]: 100 µM (≈ 33.8 µg/mL)
normalized (trans-translation [3]; [4132] 0.01): 102.817 and 102.626 and 90.8451
background subtraction (trans-translation [3]; [4132] 0.05): 284
raw luminescence read (rlu) (trans-translation [3]; [4132] 0.05): 319 rlu
normalized (trans-translation [3]; [4132] 0.05): 66.6667
background subtraction (trans-translation [3]; [4132] 0.1): 337 and 425 and 284
raw luminescence read (rlu) (trans-translation [3]; [4132] 0.1): 443 rlu and 372 rlu and 319 rlu
normalized (trans-translation [3]; [4132] 0.1): 59.331 and 41.3424 and 66.6667
background subtraction (trans-translation [3]; [4132] 0.5): 266 and 178
raw luminescence read (rlu) (trans-translation [3]; [4132] 0.5): 301 rlu and 213 rlu
normalized (trans-translation [3]; [4132] 0.5): 46.831 and 41.784
background subtraction (trans-translation [3]; [4132] 1): 213 and 266 and 426
raw luminescence read (rlu) (trans-translation [3]; [4132] 1): 248 rlu and 284 rlu and 461 rlu
background subtraction (trans-translation [3]; [4132] 2): 302 and 230
raw luminescence read (rlu) (trans-translation [3]; [4132] 2): 337 rlu and 248 rlu
IC50 (trans-translation [3]; in vitro reconstituted assay): 400 nM
Solubility (Solubility (formulated)): 5000 µg/mL (≈ 14800 µM)
